What was measured:
Assay in all cases: NCI-60 Human Tumor Cell Lines Screen, one-dose screen
Type in all cases: cell-based
[1] = system: Breast Cancer cells (MDA-MB-468); conditions: MDA-MB-468 cells, 10^-5 M, 2 days
Experimental: (§1) Anticancer activities of the exemplary isatin derivatives were tested by the NIH National Cancer Institutes (NCI), with results summarized in FIGS. 2A-3B. The anticancer activity was tested by NCI, division of cancer treatment and diagnosis, according to the NCI-60 Human Tumor Cell Lines Screen, one-dose screen (https://dtp.cancer.gov/discovery_development/nci-60/methodology.htm). This screening allows for qualified synthesized chemicals to be subjected to an anticancer test against 60 different cancer cell lines. Briefly, exemplary T1 or T2 was dissolved in DMSO:Glycerol, 9:1, at 4 mmol and kept frozen prior to use. For inoculation, a 96 well microtiter was used for the study of different cell lines. Based on the doubling time for each cell line, the well density varied. The plates were incubated at 37° ° C., 5% CO2, 95% air and 100% relative humidity for 1 day. The exemplary T1 or T2 or a control were added to the plates at a concentration of 10^−5 M. After 2 more days, the plates were fixed and stained to identify growth inhibition relative to cells without drug treatment. Anti-proliferative activity was determined based on careful analysis of historical DTP screening data. Cell death and net growth inhibition were determined based on a time zero control. A value of 100 indicates no growth inhibition. A value of 40 indicates 60% growth inhibition. A value of 0 indicates no net growth over the course of the experiment. A value of −40 indicates 40% lethality.

[2] = system: Melanoma cells (MDA-MB-435); conditions: MDA-MB-435 cells, 10^-5 M, 2 days
Experimental: as §1

[3] = system: Renal Cancer cells (CAKI-1); conditions: CAKI-1 cells, 10^-5 M, 2 days
Experimental: as §1

[4] = system: Non-Small Cell Lung Cancer cells (EKVX); conditions: 10^-5 M, 2 days
Experimental: as §1

| SMILES | anticancer activity compared to control (reduction) [1] [%] | anticancer activity compared to control (reduction) [2] [%] | anticancer activity compared to control (reduction) [3] [%] | anticancer activity compared to control (reduction) [4] [%] |
| --- | --- | --- | --- | --- |
| O=C1Nc2ccc(Cl)cc2/C1=N/N=C/c1ccsc1 [T2, 5-chloro-3-((E)-(thiophen-3-ylmethylene) hydrazono) indolin-2-one] | ~73 | – | – | – |
| O=C1Nc2ccccc2/C1=N\N=Cc1cccs1 [T1, 3-((E)-(thiophen-2-ylmethylene)hydrazono)indolin-2-one] | – | ~83 | ~48 | ~54 |

Source: patent US12319674B2, “Isatin derivatives” (KING SAUD UNIVERSITY, priority 2020, dated 2025)
